Results on nine compounds are retold here after patent publication US12441757B2, “Platform for screening NAD+ binding proteins in a cellular context” (OREGON HEALTH & SCIENCE UNIVERSITY, priority 2020, dated 2025).

Structures are written as SMILES. “Also recorded” adds a separate entry of the source.

One assay addresses T1, PARP-10 (Homo sapiens, UniProt Q53GL7).
T1 construct: Full length His6-PARP-1 and His6-SUMO-PARP-10 proteins we expressed and purified; His6 (N); SUMO (N); made in house
T1 sequence (Q53GL7 1-1025): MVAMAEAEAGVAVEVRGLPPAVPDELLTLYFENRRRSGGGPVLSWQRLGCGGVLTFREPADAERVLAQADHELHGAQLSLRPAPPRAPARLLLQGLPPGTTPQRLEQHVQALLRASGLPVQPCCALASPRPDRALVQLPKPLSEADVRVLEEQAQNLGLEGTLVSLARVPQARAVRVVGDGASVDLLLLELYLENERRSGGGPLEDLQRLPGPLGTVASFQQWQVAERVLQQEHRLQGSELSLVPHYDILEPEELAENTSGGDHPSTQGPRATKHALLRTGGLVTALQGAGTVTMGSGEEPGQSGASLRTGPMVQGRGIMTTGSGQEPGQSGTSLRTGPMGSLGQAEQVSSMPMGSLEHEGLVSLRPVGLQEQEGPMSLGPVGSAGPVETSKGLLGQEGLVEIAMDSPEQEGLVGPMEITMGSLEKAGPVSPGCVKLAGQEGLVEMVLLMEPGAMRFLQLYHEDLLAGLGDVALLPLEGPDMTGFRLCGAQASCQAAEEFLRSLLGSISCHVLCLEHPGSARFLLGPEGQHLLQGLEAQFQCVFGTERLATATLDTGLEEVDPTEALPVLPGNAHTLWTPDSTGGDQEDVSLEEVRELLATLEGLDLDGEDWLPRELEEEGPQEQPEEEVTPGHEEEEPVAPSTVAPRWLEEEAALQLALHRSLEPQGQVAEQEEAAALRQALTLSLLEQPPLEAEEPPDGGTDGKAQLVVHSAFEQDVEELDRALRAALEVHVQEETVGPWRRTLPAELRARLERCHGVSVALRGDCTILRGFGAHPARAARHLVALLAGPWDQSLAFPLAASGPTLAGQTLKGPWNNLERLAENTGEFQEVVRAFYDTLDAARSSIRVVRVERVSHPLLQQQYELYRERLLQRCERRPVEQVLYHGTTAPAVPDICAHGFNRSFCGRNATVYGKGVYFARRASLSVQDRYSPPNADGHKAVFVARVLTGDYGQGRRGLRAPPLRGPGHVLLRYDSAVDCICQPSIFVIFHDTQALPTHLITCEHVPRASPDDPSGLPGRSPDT
As to the kind of experiment: Competition labeling of PARP-10 by 2-ad-BAD. Type of assay: binding. The conditions noted are these: for block of 2-ad-BAD labeling of PARP-10 by nucleotides: 150 μM nucleotide, 0.3 μM 2-ad-BAD; for dose-dependent block of 2-ad-BAD labeling of PARP-10: competitor dose series. The source says:
(§1) FIG. 8. Densitometry analyses of FIG. 3A panels (A,B) comparing the inhibitory effect of nucleotides and (B) panels (C,D) comparing inhibitory effect of PARP inhibitors on PARP-1 and PARP-10 labelling by 2-ad-BAD. TAMRA in-gel fluorescence was normalized to Coomassie staining, except for PARP-1 NAD^+ treated samples where relative to control TAMRA signal is reported due to auto-PARylation induced molecular weight shift and therefore not detectable Coomassie signal at PARP-1 molecular weight of ˜110 kDa. Data are mean±SEM of 3 independent experiments.
(§2) Treatments. Recombinant PARP-1 (250 nM), PARP-10 (250 nM) or AK1 (500 nM; Novus Biologicals) were diluted in 100 mM NaCl, 50 mM HEPES [pH 7.4], 4 mM MgCl2, 0.2 mM TCEP. PARP-1 reactions also contained 10 μg/mL of activated calf thymus DNA (Sigma-Aldrich D4522), unless otherwise noted. In experiments reported in FIG. 2, the samples were treated with 0.1 μM 2-ad-BAD or ad-olaparib for 10 min. In competition experiments reported in FIG. 3 and Figure S3, samples were first treated with 150 μM of indicated nucleotides for 10 minute and then with 0.3 μM 2-ad-BAD for additional 10 min. All treatments occurred at RT. Samples were then kept in the dark or irradiated for 5 min in the RPR-100 Photochemical Reactor (Rayonet) equipped with 350 nm lamps at 4° C.
(§3) Click Chemistry. 25 μL of each sample was mixed with 5 μL of fatty acid free BSA and SDS to give a final Click reaction concentration of 1 mg/mL and 1%, respectively. Click reactions were started by adding 15 μL of PBS based 3× click reaction mix (final 1× concentrations shown): 100 μM Tris[(1-benzyl-1H-1,2,3triazol-4-yl)methyl]amine (TBTA, Click Chemistry Tools), 1 mM CuSO4, 40 μM tetramethylrhodamine (TAMRA)-azide (Click Chemistry Tools), 1 mM Tris(2-carboxyethyl)phosphine hydrochloride (TCEP, Thermo Fisher) and 5% tert-Butyl alcohol to each sample, and let to proceed for 1 h at RT while gently shaking. Reactions were stopped by adding 4× Laemmli sample buffer and boiling at 95° C. for 5 min.
(§4) In gel fluorescence and staining. Samples were loaded to 10 or 12% SDS-polyacrylamide gels and run until the dye front left the gel. In-gel fluorescence was detected with ChemiDoc XRS+ (Biorad) using Rhodamine filter and then the gels were stained with Coomassie blue or Silver using standard protocols.

The target of assay [1] is T2, PARP-1 (Homo sapiens, UniProt P09874).
T2 construct: Full length His6-PARP-1 and His6-SUMO-PARP-10 proteins we expressed and purified; His6 (N); made in house
T2 sequence (P09874 whole entry): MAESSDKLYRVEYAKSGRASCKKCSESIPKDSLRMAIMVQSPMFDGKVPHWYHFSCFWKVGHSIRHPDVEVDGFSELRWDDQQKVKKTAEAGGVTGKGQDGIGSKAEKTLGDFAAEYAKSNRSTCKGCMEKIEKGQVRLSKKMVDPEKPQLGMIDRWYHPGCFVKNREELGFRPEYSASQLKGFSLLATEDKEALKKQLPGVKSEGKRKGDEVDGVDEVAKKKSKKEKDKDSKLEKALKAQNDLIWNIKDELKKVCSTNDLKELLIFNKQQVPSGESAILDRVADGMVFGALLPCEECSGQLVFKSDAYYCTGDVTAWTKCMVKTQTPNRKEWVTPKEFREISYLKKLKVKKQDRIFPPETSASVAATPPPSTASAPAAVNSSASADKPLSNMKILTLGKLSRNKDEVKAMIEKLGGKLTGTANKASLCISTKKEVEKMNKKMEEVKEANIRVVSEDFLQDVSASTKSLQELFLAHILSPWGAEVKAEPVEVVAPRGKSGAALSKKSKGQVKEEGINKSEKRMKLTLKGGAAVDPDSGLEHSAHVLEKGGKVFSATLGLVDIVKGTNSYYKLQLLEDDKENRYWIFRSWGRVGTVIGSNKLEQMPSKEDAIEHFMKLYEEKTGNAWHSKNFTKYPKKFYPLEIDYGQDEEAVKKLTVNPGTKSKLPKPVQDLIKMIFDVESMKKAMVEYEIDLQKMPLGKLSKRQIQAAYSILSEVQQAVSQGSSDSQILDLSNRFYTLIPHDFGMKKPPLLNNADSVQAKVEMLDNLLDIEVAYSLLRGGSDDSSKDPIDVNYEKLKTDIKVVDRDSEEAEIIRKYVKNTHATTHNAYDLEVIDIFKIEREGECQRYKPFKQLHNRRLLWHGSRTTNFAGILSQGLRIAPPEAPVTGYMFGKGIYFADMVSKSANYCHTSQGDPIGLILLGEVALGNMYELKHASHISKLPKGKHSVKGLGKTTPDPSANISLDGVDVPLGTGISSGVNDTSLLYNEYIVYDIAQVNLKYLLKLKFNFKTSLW
As to the kind of experiment: Competition labeling of PARP-1 by 2-ad-BAD. It counts as binding. The conditions noted are these: for block of 2-ad-BAD labeling of PARP-1 by nucleotides: 150 μM nucleotide, 0.3 μM 2-ad-BAD; for dose-dependent block of 2-ad-BAD labeling of PARP-1: competitor dose series.
Text: as §1, §2, §3, §4

The next assay addresses T3, Adenylate kinase 1 (AK1) (Homo sapiens, UniProt P00568).
T3 construct: purchased Novus Biologicals NBP1-50855
T3 sequence (P00568 1-194): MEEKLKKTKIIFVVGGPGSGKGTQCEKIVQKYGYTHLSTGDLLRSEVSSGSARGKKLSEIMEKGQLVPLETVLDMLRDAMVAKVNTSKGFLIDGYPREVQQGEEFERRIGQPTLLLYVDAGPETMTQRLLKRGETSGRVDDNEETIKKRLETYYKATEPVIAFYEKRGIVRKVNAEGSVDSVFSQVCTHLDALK
The assay can be described thus: Labeling of recombinant AK1 by 2-ad-BAD and nucleotide competition. The conditions noted are these: 150 μM competitor, 0.3 μM 2-ad-BAD. Type of assay: binding. On the procedure: (§5) FIG. 10. Validation of Adenylate kinase 1 (AK1) as a putative NAD^+/NADH binding protein. […] Recombinant AK1 (500 nM) in 100 mM NaCl, 50 mM HEPES [pH 7.4], 4 mM MgCl2, 0.2 mM TCEP was incubated with 150 μM of indicated competitor molecule for 10 min, followed by 10 min treatment with 0.3 μM 2-ad-BAD. Samples were then subjected to UV light for 5 min, conjugated to TAMRA using Click chemistry, separated by SDS-PAGE and in-gel fluorescence was recorded. […] (FIG. 10B) A differential scanning fluorimetry assay is supportive of NADH as novel AK1 ligand. Recombinant AK1 (0.1 mg/mL) in 100 mM NaCl, 50 mM HEPES, pH 7.4, 4 mM MgCl2, 7.5× SYPRO Orange was tested for thermal stability in the absence or presence of indicated nucleotides at 1 mM. Ordinate reports on the difference of melt peak temperature prompted by indicated treatments. Data are mean±SEM of 3 independent experiments.
as §2, §3, §4

A further assay deals with squid AK. The conditions noted are these: cited from earlier work.
In assay [2] the test system is AK1. To be noted: cited from earlier work.
The target of assay [3] is T4, AK1 (Homo sapiens, UniProt P00568).
T4 construct: purchased Novus Biologicals NBP1-50855
T4 sequence (P00568 1-194): T3 sequence (P00568 1-194)
The assay can be described thus: Differential scanning fluorimetry (DSF) of AK1. Type of assay: binding. The conditions noted are these: nucleotide 1 mM, AK1 0.1 mg/mL. On the procedure: as §5
Differential scanning fluorimetry was used to detect the AK1-ligand interaction. […] AK1 thermal stability upon treatment with ddH2O, ATP, ADP, NAD^+or NADH, 1 mM each, was measured on Biorad RT-PCR thermocycler using Cal Orange 560 filter. […] The melting temperature (Tm) for each sample was determined by calculating first derivative of the fluorescence (d(RFU)/dT) and shift in thermal stability (ΔTm) was calculated by subtracting vehicle—treated sample Tm from ligand-treated sample Tm.
(In general: Differential scanning fluorimetry follows unfolding on heating by fluorescence.)

For assay [4], the target named is T2, PARP-1. As to the kind of experiment: In vitro photocrosslinking and click chemistry labeling of PARP-1 (in-gel fluorescence). Type of assay: binding. To be noted: 0.1 μM probe, UV 350 nm 5 min, presence or absence of damaged DNA. On the procedure: as §2
Click Chemistry. 25 μL of each sample was mixed with 5 μL of fatty acid free BSA and SDS to give a final Click reaction concentration of 1 mg/mL and 1%, respectively. […]
In gel fluorescence and staining. […] In-gel fluorescence was detected with ChemiDoc XRS+ (Biorad) using Rhodamine filter and then the gels were stained with Coomassie blue or Silver using standard protocols.

On to `Nc1ncnc2c1ncn2[C@@H]1O[C@H](COP(=O)(O)OP(=O)(O)O)[C@@H](O)[C@H]1O` [ADP], for which the “block of 2-ad-BAD labeling of PARP-10 by nucleotides” value (from here on “block … of PARP-10 by nucleotides”) at PARP-10 is reported as “did not block”. On PARP-1 [1], the “block of 2-ad-BAD labeling of PARP-1 by nucleotides” value (“block … of PARP-1 by nucleotides” below) is reported as “did not block”.

For `Nc1ncnc2c1ncn2[C@@H]1O[C@H](COP(=O)(O)OP(=O)(O)OC[C@H]2OC(O)[C@H](O)[C@@H]2O)[C@@H](O)[C@H]1O` (stereo partly shown) [ADPr, ADP-ribose], on Adenylate kinase 1 (AK1), the “competition of 2-ad-BAD labeling of recombinant AK1” value (from here on “competition”) is reported as “to a lesser extent”. The “block … of PARP-10 by nucleotides” value at PARP-10 is “did not block”. Moreover, at PARP-1 [1], the “block … of PARP-1 by nucleotides” value is “did not block”.

With `Nc1ncnc2c1ncn2[C@@H]1O[C@H](COP(=O)(O)O)[C@@H](O)[C@H]1O` [AMP], the “competition” value at Adenylate kinase 1 (AK1) is recorded as “effectively competed”.

Turning to `Nc1ncnc2c1ncn2[C@@H]1O[C@H](COP(=O)(O)OP(=O)(O)OP(=O)(O)O)[C@@H](O)[C@H]1O` [ATP, adenosine triphosphate], at Adenylate kinase 1 (AK1), the “competition” value is on record as “effectively competed”. For the same compound, the “block … of PARP-10 by nucleotides” value at PARP-10 is listed as “did not block”. Further, the “block … of PARP-1 by nucleotides” value at PARP-1 [1] is “did not block”.

On to `CC#Cc1ccc2c(=O)[nH]c(CSc3ccc(C(=O)O)cc3)nc2c1C` [ITK6], for which the “dose-dependent block of 2-ad-BAD labeling of PARP-10” value at PARP-10 was “blocked the labeling of PARP-10”. Further, the “dose-dependent block of 2-ad-BAD labeling of PARP-1” value at PARP-1 [1] is recorded as “did not block the labeling of PARP-1”.

Turning to `NC(=O)C1=CN([C@@H]2O[C@H](COP(=O)(O)OP(=O)(O)OC[C@H]3O[C@@H](n4cnc5c(N)ncnc54)[C@H](O)[C@@H]3O)[C@@H](O)[C@H]2O)C=CC1` [NADH], the “mode of inhibition of squid AK” value in the assay on squid AK is reported as “non-competitive inhibitor”. Also, the “inhibition of AK1 activity” value in the assay with AK1 [2] was “competitively inhibited”. Moreover, the “competition” value at Adenylate kinase 1 (AK1) was “effectively competed”. For the same compound, the “block … of PARP-10 by nucleotides” value at PARP-10 is reported as “reduced”. For the same compound, the “block … of PARP-1 by nucleotides” value on PARP-1 [1] is reported as “reduced”. For the same compound, the “shift in AK1 thermal stabilization (ΔTm) compared to vehicle control” value at AK1 [3] was “caused a shift in AK1 thermal stabilization; also recorded: showed a thermal shift similar to ATP and ADP”.

For `NC(=O)c1ccc[n+]([C@@H]2O[C@H](COP(=O)([O-])OP(=O)(O)OC[C@H]3O[C@@H](n4cnc5c(N)ncnc54)[C@H](O)[C@@H]3O)[C@@H](O)[C@H]2O)c1` [NAD^+, Nicotinamide adenine dinucleotide], the “inhibition of AK1 activity” value in the assay on AK1 [2] is “competitively inhibited”. On Adenylate kinase 1 (AK1), the “competition” value is “to a lesser extent”. Besides, the “block … of PARP-10 by nucleotides” value at PARP-10 was “reduced”. Besides, on PARP-1 [1], the “block … of PARP-1 by nucleotides” value is “reduced”. Further, the “shift in AK1 thermal stabilization (ΔTm) compared to vehicle control” value at AK1 [3] was “caused a shift in AK1 thermal stabilization”.

For `NC(=O)c1cc(F)cc2c1C(=O)N(C1CCN(C3CCC(F)(F)CC3)CC1)C2` [NMS-P118, 2-[1-(4,4-Difluorocyclohexyl)Piperidin-4-Yl]-6-Fluoro-3-Oxo-2,3-Dihydro-1H-Isoindole-4-Carboxamide], the “dose-dependent block of 2-ad-BAD labeling of PARP-10” value on PARP-10 is on record as “did not block the labeling of PARP-10”. The “dose-dependent block of 2-ad-BAD labeling of PARP-1” value on PARP-1 [1] is listed as “blocked the labeling of PARP-1”.

With `C#CCCC1(CCOC(=O)N2CCN(C(=O)c3cc(Cc4n[nH]c(=O)c5ccccc45)ccc3F)CC2)N=N1` [ad-olaparib, 2-(3-(but-3-yn-1-yl)-3H-diazirin-3-yl)ethyl 4-(2-fluoro-5-((4-oxo-3,4-dihydrophthalazin-1-yl)methyl)benzoyl) piperazine-1-carboxylate], the “UV-dependent labeling of PARP-1, dependence on damaged DNA” value at PARP-1 [4] was “labels PARP-1 independent of PARP-1 binding to damaged DNA”.
